According to US8389530B2, “Substituted quinazoline compounds” (Fovea Pharmaceuticals, priority 2008, dated 2013):
In brackets after ≈: the same amount, converted by molar mass. Read-outs that look alike come from different tables or passages of the source.

Key:
[1] = Solubility in aqueous buffer at pH 5 (HPLC/UV); format: physicochemical; conditions: acetic acid/KOH buffer pH 5, stirred 24 h at room temperature; for solubility at 24 h: acetic acid/KOH buffer, pH 5, aqueous buffer, thermodynamic from solid
Description: Solubility of Compounds was determined in aqueous medium using the following procedure.
Two mg of Compound was added to 200 μl buffer (acetic acid/KOH) solution at pH 5. Solution was then stirred for 24 h at room temperature and then centrifuged 10 min at 16,000 rpm. Corresponding supernatants were analyzed by HPLC and UV detection. Calculation of a given Compound concentration was performed by reporting area under the experimental slope onto a calibration slope obtained separately using DMSO-solubilised Compound at different concentrations.

[2] = Colour of compounds; format: physicochemical
[3] = tested on: VEGF-induced blood retinal barrier breakdown; assay: Inhibition of vascular leakage in a rabbit model of VEGF-induced blood-retinal barrier breakdown; format: in vivo; conditions: topical 3% (30 mg/ml) 4 times daily for four days, 48 h after intravitreal VEGF, ocular fluorophotometry
Description: Intravitreal injection of VEGF in the rabbit eye produces massive retinal vascular leakage (Edelman and Lutz, 2003, Invest. Ophthalmol. Vis. Sci. 2003; 44:ARVO e-abstract No. 328). Based on said animal model, we investigated the efficacy of topical administration of compound 7 of the invention in reducing the retinal leakage in a VEGF-induced blood retinal barrier breakdown in the rabbit. During four days, 3% test compound 7 (30 mg/ml, 10% PEG 400, 87% labrafil) or control items without compound of the Invention were administered 4 times daily by topical administration (50 μl) in the right eye of five rabbits. On day two, animals received a single intravitreal injection of 50 μl (500 ng) recombinant human VEGF 165 (RD systems) into right eye. Forty-seven hours after the VEGF challenge (day four), fluorescein was injected via the marginal ear vein and circulate during one hour. Breakdown of the blood-retinal barrier was evaluated 48 h after VEGF challenge by measuring fluorescein contents into the vitreoretinal compartment using non-invasive scanning ocular fluorophotometry.

[4] = tested on: Src tyrosine kinase; conditions: in vivo; cited from earlier work
[5] = tested on: VEGF-induced blood retinal barrier breakdown; assay: Inhibition of vascular leakage in a rat model of VEGF-induced blood-retinal barrier breakdown; format: in vivo; conditions: topical 0.51% (5.1 mg/ml) six times over 27 h after intravitreal VEGF, Evans blue
Description: We investigated the efficacy of topical administration of compound II of the invention in reducing the retinal leakage in a VEGF-induced blood retinal barrier breakdown in the rat.
Rats were treated by a single intravitreal injection of 5 μl (100 ng) recombinant human VEGF164 (RD Systems) into each eye.
During twenty-seven hours following VEGF injection, 0.51% test compound II of the Invention (5.1 mg/ml buffer pH 5 with 30% cyclodextrin) and control without compound of the Invention were administered six times by topical administration (10 μl) in eyes of sixteen rats.
Twenty-seven hours later after the VEGF challenge, Evans blue dye (45 mg/kg) was injected intravenously and the dye was allowed to circulate during two hours.
Then, each rat was infused with 0.05M citrate buffer pH 3.5 (37° C.) for 2 minutes to allow clearance of the dye. Immediately after said perfusion, both eyes were enucleated and Evans blue dye was extracted by incubating each retina in formamide (Qaum et al Invest. Ophthalmol. Vis. Sci. 2001, Vol 42, No 10). Afterward, the absorbance was measured with a spectrophotometer at 620 nm.
Breakdown of blood-retinal barrier was proportional to the concentration of Evans blue in the retina normalized by Evans blue concentrations in the plasma.

SMILES | Solubility (pH 5) in % [1] | solubility at 24 h [1] | Colour [2] | also measured
Cc1cccc(C)c1-c1ccc2nc(Nc3ccc(N4CCNCC4)cc3)ncc2c1 [compound 17, [6-(2,6-Dimethyl-phenyl)-quinazolin-2-yl]-(4-piperazin-1-yl-phenyl)-amine] | 0.63% | 6300 µg/mL (≈ 15400 µM) | brown | 
Cc1ccc(-c2nn(C(C)(C)C)c3ncnc(N)c23)cc1 [PP1] |  |  |  | breakdown of the brain-blood barrier (BBB) [4]: decrease breakdown of the brain-blood barrier (BBB); expression of VEGF [4]: reduce expression of VEGF; oedema [4]: decrease oedema
Cc1cccc(C)c1-c1ccc2nc(Nc3ccc(N4CCN(C(=O)c5ccncc5)CC4)cc3)ncc2c1 [compound 11, (4-{4-[6-(2,6-Dimethyl-phenyl)-quinazolin-2-ylamino]-phenyl}-piperazin-1-yl)-pyridin-4-yl-methanone] |  |  |  | reduction of vascular leakage compared to control [5]: 56%
Cc1cccc(C)c1-c1ccc2nc(Nc3ccc(OCCN4CCC[C@@H]4C(=O)O)cc3)ncc2c1 [8 Chlorhydrate, (R)-1-(2-{4-[6-(2,6-Dimethyl-phenyl)-quinazolin-2-ylamino]-phenoxy}-ethyl)-pyrrolidine-2-carboxylic acid] | 1% |  | Pale yellow | Solubility (pH 5) in mg/ml [1]: 10 mg/ml
CN(C)[C@@H]1CCN(C(=O)COc2ccc(Nc3ncc4cc(-c5cc(O)ccc5Cl)ccc4n3)cc2)C1 [13 base form] | 0.03% |  | Pale green | Solubility (pH 5) in mg/ml [1]: 0.29 mg/ml
Cc1cccc(C)c1-c1ccc2nc(Nc3ccc(OCC(=O)N4CC[C@@H](N(C)C)C4)cc3)ncc2c1 [compound 14, 1-((R)-3-Dimethylamino-pyrrolidin-1-yl)-2-{4-[6-(2,6-dimethyl-phenyl)-quinazolin-2-ylamino]-phenoxy}-ethanone] | 0.01% | 140 µg/mL (≈ 282 µM) | Pale yellow | 
Cc1cccc(C)c1-c1ccc2nc(Nc3ccc(OCCN4CCC[C@@H]4C(=O)O)cc3)ncc2c1 [compound 8, (R)-1-(2-{4-[6-(2,6-Dimethyl-phenyl)-quinazolin-2-ylamino]-phenoxy}-ethyl)-pyrrolidine-2-carboxylic acid] |  |  |  | Solubility (pH 5) in % ([1]; listed as 8 base form): 0.04%; Solubility (pH 5) in mg/ml ([1]; listed as 8 base form): 0.4 mg/ml; Colour ([2]; listed as 8 base form): Orange

Now from value to compound, other results behind:

Solubility (pH 5) in % [1] | solubility at 24 h [1] | Colour [2] | SMILES | also measured
0.03% | 340 µg/mL (≈ 738 µM) | Yellow | Oc1ccc(Cl)c(-c2ccc3nc(Nc4ccc(OCCN5CCCC5)cc4)ncc3c2)c1 [7 base form, 4-Chloro-3-{2-[4-(2-pyrrolidin-1-yl-ethoxy)-phenylamino]-quinazolin-6-yl}-phenol] | 
0.09% | 900 µg/mL | Pale yellow | Cc1cccc(C)c1-c1ccc2nc(Nc3ccc(OCCN4CCCC4)cc3)ncc2c1 [6 Chlorhydrate, [6-(2,6-Dimethyl-phenyl)-quinazolin-2-yl]-[4-(2-pyrrolidin-1-yl-ethoxy)-phenyl]-amine] | 
0.19% | 1900 µg/mL | Pale yellow | Cl.Oc1ccc(Cl)c(-c2ccc3nc(Nc4ccc(OCCN5CCCC5)cc4)ncc3c2)c1 [compound 7, 4-Chloro-3-{2-[4-(2-pyrrolidin-1-yl-ethoxy)-phenylamino]-quinazolin-6-yl}-phenol; hydrochloride] | reduction of vascular leakage compared to control [3]: 41%
0.35% | 3500 µg/mL | Pale yellow | Cc1cccc(C)c1-c1ccc2nc(Nc3ccc(N4CCN(CCN5CCCC5)C4=O)cc3)ncc2c1 [9 Chlorhydrate, 1-{4-[6-(2,6-Dimethyl-phenyl)-quinazolin-2-ylamino]-phenyl}-3-(2-pyrrolidin-1-yl-ethyl)-imidazolidin-2-one] | 
0.67% | 6700 µg/mL | Pale yellow | Cc1cc(-c2cc(O)ccc2Cl)cc2cnc(Nc3ccc(OCCN4CCCC4)cc3)nc12.Cl [Compound 18, 1-(2-{4-[6-(2-Chloro-5-hydroxy-phenyl)-8-methyl-quinazolin-2-ylamino]-phenoxy}-ethyl)-pyrrolidinium; chloride] | 
0.05% | 500 µg/mL (≈ 1020 µM) | Pale yellow | Oc1ccc(Cl)c(-c2ccc3nc(Nc4ccc(OCCN5CCCCCC5)cc4)ncc3c2)c1 [compound 16, 3-{2-[4-(2-Azepan-1-yl-ethoxy)-phenylamino]-quinazolin-6-yl}-4-chloro-phenol] | 
0.45% | 4500 µg/mL | Pale yellow | O=C1N(CCN2CCCC2)CCN1c1ccc(Nc2ncc3cc(-c4cc(O)ccc4Cl)ccc3n2)cc1 [12 Chlorhydrate, 1-{4-[6-(2-Chloro-5-hydroxy-phenyl)-quinazolin-2-ylamino]-phenyl}-3-(2-pyrrolidin-1-yl-ethyl)-imidazolidin-2-one] | 
